One assay concerns the target T1, GST-tagged PTPN2 protein (Homo sapiens, UniProt P17706).
T1 construct: purchased ActiveMotif 31592
The experiment in a line: Primary assay of PTPN2 enzymatic activity inhibition (DiFMUP fluorescence). It counts as biochemical. The note with it: DiFMUP substrate 2 μM, 60 min at RT. How it is done:
Compound activity was determined using GST-tagged PTPN2 protein (Cat #31592, ActiveMotif) (SEQ ID NO: 1) in an in vitro enzymatic reaction. The enzymatic reaction was carried out in assay buffer (50 mM HEPES Na salt pH 7.2-7.4, 2 mM EDTA, 100 mM NaCl, 52 ng/μL BSA, and 6 mM DTT). The compounds were dispensed on a 384 well Diamond Well Plate (Axigen, Cat #P-384-120SQ-C-S) using the Biomek FX liquid handling system at 100× solutions of compounds in DMSO. 2× PTPN2 (final concentration 0.004 ng/μL) was prepared in 1× Assay buffer and 25 μL of mixture per well was added into Reaction plate (Optiplate, black, Perkin Elmer, Cat #6007270). Add 25 μL of 1× buffer to Ctrl- (Substrate w/o PTPN2) wells followed by centrifugation at 100 g for 1 min. Next step the Compounds were added to Reaction plate using Biomek station via following steps: 3 ul of 100× compounds (in DMSO) were mixed with 27 μL of Assay Buffer, then 5 μL of this mixture was added to Reaction plate with 25 μL of PTPN2 Mix. Plates were centrifuged for 1 min at 100 g and incubated for another 10 minutes at room temperature. Finally, 20 μL of 2.5× Substrate (DiFUMP, Invitrogen™ Cat #D6567) mix was added into appropriate wells of Reaction plate to the final concentration of 2 μM, plate was centrifuged at 100 g for 1 min followed by incubation at RT for 60 min, and the Fluorescence Intensity was measured using a Microplate Reader (ClarioStar Plus, excitation 360 nm, emission 450 nm). The % inhibition was then used to calculate the IC50 values. The IC50 values are shown in Table A1, wherein “A” corresponds to IC50<5.0 nm, “B” corresponds to 5.0 nm≤IC50<10.0 nm, “C” corresponds to 10.0 nm≤IC50<50.0 nm, “D” corresponds to 50.0 nm≤IC50<100.0 nm, and “E” corresponds to 100.0 nm≤IC50<500.0 nm, and “F” corresponds to 500.0 nm≤IC50.

Assay [1] concerns B16F10 mouse melanoma cells. The experiment in a line: Tumor cells B16F10 cellular growth IFNγ-induced inhibition assay (CellTiter-Glo). It counts as cell-based. Conditions: for pIC50: B16-F10, 72 h, 3 days incubation; for inhibition at 100 µM: B16-F10, B16F10, 100 μM compound. As for the experimental part:
B16F10 mouse melanoma cells (ATCC Cat #CRL-6475) were seeded at a density of 500 cells per well in a 384-well clear bottom plate (Corning Cat #3712, Corning, N.Y.) in 40 μL total volume of DMEM+10% FBS (PanEco Cat #C420, Russia and Sigma Cat #F4135, St. Louis, Mo.). Cells were allowed to adhere overnight at 37° C., 5% CO2. On the following day, 250× solutions of compounds in DMSO (Sigma Cat #D2650) were prepared into […] plate (Diamond Well Plate, Axigen, Cat #P-384-120SQ-C-S) (final concentration of 1×) and DMSO only controls were included. Dilution Plate (Diamond Well Plate (Axigen, Cat #P-384-120SQ-C-S) was prepared by adding 49 μL of culture medium per well: half of the plate with culture medium only, half with culture medium+IFNγ (5 ng/ml). A 1 μL aliquot of 250× compounds ([…] plate) was added to 49 μL of culture medium (Dilution plate), then a 10 μL aliqut of the mixture was transferred to Reaction plate with 40 μL of cells followed by centrifugation at 240 g for 1 min. After 3 days of incubation, 10 μL of CellTiter-Glo (Promega) was added to the cells, plates were centrifuged at 240 g for 1 min, and luminescence signal was measured. For each compound, the percent growth inhibition at every compound dose level was calculated relative to the “DMSO/with IFNγ” control and used to determine the IC50.

[2] abbreviates: B16F10, + IFNγ, read-out: IC50 + IFNγ.
The mark [3] stands for this setting: B16F10, no IFNγ, read-out: IC50 no IFNγ.
The mark [4] stands for this setting: + IFNγ, read-out: % Growth Inhibition at 100 μM + IFNγ.
[5] abbreviates: no IFNγ, read-out: % Growth Inhibition at 100 μM no IFNγ.

pIC50: −log10 of the molar value. Structures can show the parent of a compound that is named as a salt. Where two headings read alike, the source gives them in different places.

The source of these data is patent US20240262801A1, “COMPOUNDS HAVING 5-(2-FLUORO-6-HYDROXYPHENYL)-1,2,5-THIADIAZOLIDIN-3-ONE 1,1-DIOXIDE AS INHIBITORS OF PROTEIN KINASE PHOSPHATASE ENZYMES” (Ness Therapeutics, Inc., priority 2021, published 2024).

The pIC50 is the negative decadic logarithm of the IC50, by convention in mol/L. Usually inhibition stands for the share of the control response that was lost under treatment.

T1 sequence (P17706 with tags, fused parts or gaps): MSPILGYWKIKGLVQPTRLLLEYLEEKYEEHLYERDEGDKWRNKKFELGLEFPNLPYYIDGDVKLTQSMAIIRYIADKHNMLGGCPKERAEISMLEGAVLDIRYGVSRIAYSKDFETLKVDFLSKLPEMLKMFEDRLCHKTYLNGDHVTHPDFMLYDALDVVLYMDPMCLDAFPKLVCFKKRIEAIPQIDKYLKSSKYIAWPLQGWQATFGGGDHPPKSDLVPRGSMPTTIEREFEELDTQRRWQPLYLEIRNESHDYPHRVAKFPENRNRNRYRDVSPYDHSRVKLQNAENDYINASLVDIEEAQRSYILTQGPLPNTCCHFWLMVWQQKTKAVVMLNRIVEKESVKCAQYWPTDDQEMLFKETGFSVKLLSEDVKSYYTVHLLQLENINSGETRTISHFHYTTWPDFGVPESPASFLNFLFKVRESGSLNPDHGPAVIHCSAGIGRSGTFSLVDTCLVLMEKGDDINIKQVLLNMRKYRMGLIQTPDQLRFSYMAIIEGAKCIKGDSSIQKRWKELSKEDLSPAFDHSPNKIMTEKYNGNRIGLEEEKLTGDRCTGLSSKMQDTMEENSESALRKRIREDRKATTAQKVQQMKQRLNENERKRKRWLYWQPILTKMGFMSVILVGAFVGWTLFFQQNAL

Take `COc1cccc(-c2cc(O)c(N3CC(=O)NS3(=O)=O)c(F)c2)c1` [Example 1, 5-(3-fluoro-5-hydroxy-3′-methoxybiphenyl-4-yl)-1,2,5-thiadiazolidin-3-one 1,1-dioxide]: the results for the negative logarithm of the IC50 (pIC50) (at GST-tagged PTPN2 protein; in assay [1] (setting [2]); in assay [1] (setting [3])) were 6.30 to 7.00, at most 4.00 and at most 4.00, respectively. The inhibition at 100 µM in assay [1] (setting [4]) and in assay [1] (setting [5]) was 10 to 50% each time.

For `O=C1CN(c2c(O)cc(-c3cccc(F)c3)cc2F)S(=O)(=O)N1` [Example 2, 5-(3,3′-difluoro-5-hydroxybiphenyl-4-yl)-1,2,5-thiadiazolidin-3-one 1,1-dioxide], the negative logarithm of the IC50 (pIC50) is 6.30 to 7.00 against GST-tagged PTPN2 protein, 4.00 to 4.30 in assay [1] (setting [2]) and at most 4.00 in assay [1] (setting [3]). In addition, the inhibition at 100 µM in assay [1] (setting [4]) was in the range of 50 to 75%; in assay [1] (setting [5]) it was 10 to 50%.

Turning to `COc1ccc(-c2cc(O)c(N3CC(=O)NS3(=O)=O)c(F)c2)cc1` [Example 3, 5-(3-fluoro-5-hydroxy-4′-methoxybiphenyl-4-yl)-1,2,5-thiadiazolidin-3-one 1,1-dioxide], the pIC50 was 6.30 to 7.00 against GST-tagged PTPN2 protein, at most 4.00 in assay [1] (setting [2]) and at most 4.00 in assay [1] (setting [3]). In addition, the inhibition at 100 µM in assay [1] (setting [4]) and in assay [1] (setting [5]) was 10 to 50% each time.

In the case of `O=C1CN(c2c(O)cc(-c3cc(F)cc(F)c3)cc2F)S(=O)(=O)N1` [Example 4, 5-(3,3′,5′-trifluoro-5-hydroxybiphenyl-4-yl)-1,2,5-thiadiazolidin-3-one 1,1-dioxide], the figures for the pIC50 (against GST-tagged PTPN2 protein; in assay [1] (setting [2]); in assay [1] (setting [3])) were 6.30 to 7.00, at most 4.00 and at most 4.00, respectively. The inhibition at 100 µM in assay [1] (setting [4]) and in assay [1] (setting [5]) was 10 to 50% throughout.

Take `CCOc1ccccc1-c1cc(O)c(N2CC(=O)NS2(=O)=O)c(F)c1` [Example 5, 5-(2′-ethoxy-3-fluoro-5-hydroxybiphenyl-4-yl)-1,2,5-thiadiazolidin-3-one 1,1-dioxide]: the pIC50 is 6.30 to 7.00 against GST-tagged PTPN2 protein, at most 4.00 in assay [1] (setting [2]) and at most 4.00 in assay [1] (setting [3]). Besides, the figures for the inhibition at 100 µM in assay [1] (setting [4]) and in assay [1] (setting [5]) were 50 to 75% and 10 to 50%, respectively.

`Cc1ccccc1-c1cc(O)c(N2CC(=O)NS2(=O)=O)c(F)c1` [Example 6, 5-(3-fluoro-5-hydroxy-2′-methylbiphenyl-4-yl)-1,2,5-thiadiazolidin-3-one 1,1-dioxide]: on GST-tagged PTPN2 protein, the pIC50 is at most 6.30.

Turning to `O=C1CN(c2c(O)cc(-c3ccccc3F)cc2F)S(=O)(=O)N1` [Example 7, 5-(2′,3-difluoro-5-hydroxybiphenyl-4-yl)-1,2,5-thiadiazolidin-3-one 1,1-dioxide], the pIC50 on GST-tagged PTPN2 protein is 6.30 to 7.00; in assay [1] (setting [2]), 4.00 to 4.30; in assay [1] (setting [3]), at most 4.00. For the same compound, the inhibition at 100 µM in assay [1] (setting [4]) fell in the range of 50 to 75%; in assay [1] (setting [5]) it was 10 to 50%.

As to `O=C1CN(c2c(O)cc(-c3ccc(F)cc3)cc2F)S(=O)(=O)N1` [Example 8, 5-(3,4′-difluoro-5-hydroxybiphenyl-4-yl)-1,2,5-thiadiazolidin-3-one 1,1-dioxide], the pIC50 against GST-tagged PTPN2 protein is 6.30 to 7.00; in assay [1] (setting [2]), at most 4.00; in assay [1] (setting [3]), at most 4.00. The inhibition at 100 µM in assay [1] (setting [4]) and in assay [1] (setting [5]) was 10 to 50% each time.

The compound `Cc1cccc(-c2cc(O)c(N3CC(=O)NS3(=O)=O)c(F)c2)c1` [Example 9, 5-(3-fluoro-5-hydroxy-3′-methylbiphenyl-4-yl)-1,2,5-thiadiazolidin-3-one 1,1-dioxide] showed a pIC50 against GST-tagged PTPN2 protein of 6.30 to 7.00.

Regarding `Cc1ccc(-c2cc(O)c(N3CC(=O)NS3(=O)=O)c(F)c2)cc1` [Example 10, 5-(3-fluoro-5-hydroxy-4′-methylbiphenyl-4-yl)-1,2,5-thiadiazolidin-3-one 1,1-dioxide], at GST-tagged PTPN2 protein, the pIC50 is 6.30 to 7.00.

For the compound `CN(c1ccccc1)S(=O)(=O)Nc1cc(O)c(N2CC(=O)NS2(=O)=O)c(F)c1` [Example 31, N′-[4-(1,1-dioxido-4-oxo-1,2,5-thiadiazolidin-2-yl)-3-fluoro-5-hydroxyphenyl]-N-methyl-N-phenylsulfuric diamide], the pIC50 on GST-tagged PTPN2 protein is 7.30 to 8.00.

`CN(C1CCCCC1)S(=O)(=O)Nc1cc(O)c(N2CC(=O)NS2(=O)=O)c(F)c1` [Example 32, N-cyclohexyl-N′-[4-(1,1-dioxido-4-oxo-1,2,5-thiadiazolidin-2-yl)-3-fluoro-5-hydroxyphenyl]-N-methylsulfuric diamide] showed a pIC50 on GST-tagged PTPN2 protein of 7.30 to 8.00.

For `O=C1CN(c2c(O)cc(NC(=O)NCc3ccccc3)cc2F)S(=O)(=O)N1` [Example 60, 1-benzyl-3-[4-(1,1-dioxido-4-oxo-1,2,5-thiadiazolidin-2-yl)-3-fluoro-5-hydroxyphenyl]urea], on GST-tagged PTPN2 protein, the pIC50 was 7.30 to 8.00.

`O=C1CN(c2c(O)cc(NC(=O)Nc3ccc(N4CCOCC4)cc3)cc2F)S(=O)(=O)N1` [Example 65, 1-[4-(1,1-dioxido-4-oxo-1,2,5-thiadiazolidin-2-yl)-3-fluoro-5-hydroxyphenyl]-3-[4-(morpholin-4-yl)phenyl]urea]: the pIC50 at GST-tagged PTPN2 protein was above 8.30.

On to `CC(C)(C)OC(=O)N1CCN(c2ccc(NC(=O)Nc3cc(O)c(N4CC(=O)NS4(=O)=O)c(F)c3)cc2)CC1` [Example 66, tert-butyl 4-[4-({[4-(1,1-dioxido-4-oxo-1,2,5-thiadiazolidin-2-yl)-3-fluoro-5-hydroxyphenyl]carbamoyl}amino)phenyl]piperazine-1-carboxylate], for which the pIC50 on GST-tagged PTPN2 protein was above 8.30.

Take `O=C1CN(c2c(O)cc(NC(=O)Nc3ccc(N4CCNCC4)cc3)cc2F)S(=O)(=O)N1` [Example 67, 1-[4-(1,1-dioxido-4-oxo-1,2,5-thiadiazolidin-2-yl)-3-fluoro-5-hydroxyphenyl]-3-[4-(piperazin-1-yl)phenyl]urea hydrochloride]: at GST-tagged PTPN2 protein, the pIC50 is above 8.30.

On GST-tagged PTPN2 protein, `COc1ccc(NC(=O)Nc2cc(O)c(N3CC(=O)NS3(=O)=O)c(F)c2)cc1C(F)(F)F` [Example 68, 1-[4-(1,1-dioxido-4-oxo-1,2,5-thiadiazolidin-2-yl)-3-fluoro-5-hydroxyphenyl]-3-[4-methoxy-3-(trifluoromethyl)phenyl]urea] had a pIC50 above 8.30.

At GST-tagged PTPN2 protein, `CC(C)c1ccc(NC(=O)Nc2cc(O)c(N3CC(=O)NS3(=O)=O)c(F)c2)cc1` [Example 70, 1-[4-(1,1-dioxido-4-oxo-1,2,5-thiadiazolidin-2-yl)-3-fluoro-5-hydroxyphenyl]-3-[4-(propan-2-yl)phenyl]urea] gave a pIC50 above 8.30.

As for `O=C1CN(c2c(O)cc(NC(=O)Nc3ccc(OC(F)(F)F)cc3)cc2F)S(=O)(=O)N1` [Example 71, 1-[4-(1,1-dioxido-4-oxo-1,2,5-thiadiazolidin-2-yl)-3-fluoro-5-hydroxyphenyl]-3-[4-(trifluoromethoxy)phenyl]urea], at GST-tagged PTPN2 protein, the pIC50 was above 8.30.

As to `O=C1CN(c2c(O)cc(NC(=O)Nc3ccccc3F)cc2F)S(=O)(=O)N1` [Example 93, 1-[4-(1,1-dioxido-4-oxo-1,2,5-thiadiazolidin-2-yl)-3-fluoro-5-hydroxyphenyl]-3-(2-fluorophenyl)urea], the pIC50 on GST-tagged PTPN2 protein is above 8.30.
